ChEMBL document CHEMBL5108051, “Improving the Antimicrobial Performance of Amphiphilic Cationic Antimicrobial Peptides Using Glutamic Acid Full-Scan and Positive Charge Compensation Strategies” (J Med Chem, 2022)
In brackets after ≈: the same amount, converted by molar mass. Activity calls are given as the source filed them. The rule behind the calls is not given here. Peptide text beside a SMILES is read from it.

How the values were obtained:
Staphylococcus aureus [1] = assay: Antibacterial activity against Staphylococcus aureus ATCC 25923 assessed as fractional inhibitory concentration index in presence of kanamycin by checkerboard assay; type: functional
Escherichia coli [2] = assay: Antibacterial activity against gentamicin resistant Escherichia coli ATCC 25922 assessed as fractional inhibitory concentration index in presence of rifampin by checkerboard assay; type: functional
Staphylococcus aureus [3] = assay: Antibacterial activity against rifampin resistant Staphylococcus aureus ATCC 25923 assessed as fractional inhibitory concentration index in presence of kanamycin by checkerboard assay; type: functional
Escherichia coli [4] = assay: Antibacterial activity against Escherichia coli ATCC 25922 assessed as growth inhibition measured after 18 to 24 hrs by CLSI based broth microdilution method; type: functional; details: time 18-24 hrs
Escherichia coli [5] = assay: Antibacterial activity against gentamicin resistant Escherichia coli ATCC 25922 assessed as fractional inhibitory concentration index in presence of gentamicin by checkerboard assay; type: functional
Cell membrane [6] = assay: Induction of cell membrane disruption in Staphylococcus aureus ATCC 25923 assessed as increase in PI uptake measured after 30 to 120 mins by propidium iodide staining based FACS flow cytometry analysis (reference value: 15%); type: subcellular; details: time 30-120 min
Escherichia coli [7] = assay: Antibacterial activity against Escherichia coli ATCC 25922 assessed as fractional inhibitory concentration index in presence of rifampin by checkerboard assay; type: functional
Cell membrane [8] = assay: Induction of cell membrane disruption in Escherichia coli ATCC 25922 assessed as increase in PI uptake measured after 30 to 120 mins by propidium iodide staining based FACS flow cytometry analysis (reference value: 6.0 %); type: subcellular; details: time 30-120 min
Staphylococcus aureus [9] = assay: Antibacterial activity against Staphylococcus aureus ATCC 25923 assessed as fractional inhibitory concentration index in presence of vancomycin by checkerboard assay; type: functional
Staphylococcus aureus [10] = assay: Antibacterial activity against gentamicin resistant Staphylococcus aureus ATCC 25923 assessed as fractional inhibitory concentration index in presence of kanamycin by checkerboard assay; type: functional
Escherichia coli [11] = assay: Antibacterial activity against rifampin resistant Escherichia coli ATCC 25922 assessed as fractional inhibitory concentration index in presence of kanamycin by checkerboard assay; type: functional
Klebsiella pneumoniae = assay: Antibacterial activity against Klebsiella pneumoniae ATCC 700603 assessed as growth inhibition measured after 18 to 24 hrs by CLSI based broth microdilution method; type: functional; details: time 18-24 hrs
Cell membrane [12] = assay: Induction of cell membrane disruption in Staphylococcus aureus ATCC 25923 assessed as cell morphological damage measured after 120 mins by […] electron microscope analysis; type: subcellular
Staphylococcus aureus [13] = assay: In vivo antimicrobial activity against Staphylococcus aureus ATCC 25923 infected in BALB/C mouse pulmonary infection model at 5 to 10 mg/kg, ip; type: functional, organism-based; details: dose 5-10 mg/kg
Escherichia coli [14] = assay: Antibacterial activity against gentamicin resistant Escherichia coli ATCC 25922 assessed as fractional inhibitory concentration index in presence of kanamycin by checkerboard assay; type: functional
Staphylococcus aureus [15] = assay: Antibacterial activity against Staphylococcus aureus ATCC 25923 assessed as fractional inhibitory concentration index in presence of gentamicin by checkerboard assay; type: functional
[16] = Acute toxicity in BALB/c mouse assessed as mortality at 80 mg/kg, ip administered as single dose measured for 7 days; type: organism-based; details: BALB/c, in vivo, time 7 day, read-out: Activity
Cell membrane [17] = assay: Induction of cell membrane disruption in Escherichia coli ATCC 25922 assessed as cell morphological damage measured after 30 mins by […] electron microscope analysis; type: subcellular
Bacillus subtilis = assay: Antibacterial activity against Bacillus subtilis ATCC 23857 assessed as growth inhibition measured after 18 to 24 hrs by CLSI based broth microdilution method; type: functional; details: time 18-24 hrs
Pseudomonas aeruginosa = assay: Antibacterial activity against Pseudomonas aeruginosa ATCC 27853 assessed as growth inhibition measured after 18 to 24 hrs by CLSI based broth microdilution method; type: functional; details: time 18-24 hrs
Cell membrane [18] = assay: Induction of inner membrane permeabilization in Escherichia coli ML-35 ATCC 43837 assessed as increase in absorbance at 1 to 4 times MIC measured at 420 nm in presence of ONPG by microplate reader assay; type: subcellular; details: DDE = dose-dependent effect
Cell membrane [19] = assay: Induction of cytoplasmic membrane depolarization in Escherichia coli ATCC 25922 assessed as increase in fluorescence intensity measured within 1 min by DiSC3-5 dye based fluorescence method; type: subcellular
Staphylococcus aureus [20] = assay: Antibacterial activity against rifampin resistant Staphylococcus aureus ATCC 25923 assessed as fractional inhibitory concentration index in presence of rifampin by checkerboard assay; type: functional
[21] = Acute toxicity in BALB/c mouse assessed as pathological changes in liver at 20 to 80 mg/kg, ip administered as single dose measured for 7 days by H and E staining method; type: organism-based; details: in vivo, 168 h, dose 20-80 mg/kg, time 7 day
Escherichia coli [22] = assay: Antibacterial activity against gentamicin resistant Escherichia coli ATCC 25922 assessed as fractional inhibitory concentration index in presence of vancomycin by checkerboard assay; type: functional
Escherichia coli [23] = assay: Antibacterial activity against Escherichia coli ATCC 25922 assessed as fractional inhibitory concentration index in presence of kanamycin by checkerboard assay; type: functional
Escherichia coli [24] = assay: Induction of cell membrane damage in Escherichia coli ATCC 25922 assessed as increase in nucleic acid leakage by microplate reader assay; type: functional, organism-based; details: time 0-6 hrs, TDE = time-dependent effect
Escherichia coli [25] = assay: Antibacterial activity against rifampin resistant Escherichia coli ATCC 25922 assessed as fractional inhibitory concentration index in presence of rifampin by checkerboard assay; type: functional
Staphylococcus aureus [26] = assay: Antibacterial activity against rifampin resistant Staphylococcus aureus ATCC 25923 assessed as fractional inhibitory concentration index in presence of vancomycin by checkerboard assay; type: functional
Staphylococcus aureus [27] = assay: Antibacterial activity against Staphylococcus aureus ATCC 25923 assessed as resistance development measured after 15 passages at sub-MIC concentration by resistance development assay; type: functional, organism-based
[28] = Retention time of the compound by RP-HPLC analysis; type: physicochemical
Staphylococcus aureus [29] = assay: Antibacterial activity against Staphylococcus aureus ATCC 25923 assessed as growth inhibition measured after 18 to 24 hrs by CLSI based broth microdilution method; type: functional; details: time 18-24 hrs
Escherichia coli [30] = assay: Antibacterial activity against Escherichia coli ATCC 25922 assessed as fractional inhibitory concentration index in presence of gentamicin by checkerboard assay; type: functional
[31] = Acute toxicity in BALB/c mouse assessed as pathological changes in heart at 20 to 80 mg/kg, ip administered as single dose measured for 7 days by H and E staining method; type: organism-based; details: in vivo, 168 h, dose 20-80 mg/kg, time 7 day
Cell membrane [32] = assay: Induction of outer membrane permeabilization to NPN in Staphylococcus aureus ATCC 25923 cells assessed as increase in fluorescence intensity measured within 1 min by NPN fluorescent dye based microplate reader assay; type: subcellular
Escherichia coli [33] = assay: Antibacterial activity against rifampin resistant Escherichia coli ATCC 25922 assessed as fractional inhibitory concentration index in presence of gentamicin by checkerboard assay; type: functional
Staphylococcus aureus [34] = assay: Induction of cell membrane damage in Staphylococcus aureus ATCC 25923 assessed as increase in nucleic acid leakage by microplate reader assay; type: functional, organism-based; details: time 0-6 hrs, TDE = time-dependent effect
Staphylococcus aureus [35] = assay: Antibacterial activity against rifampin resistant Staphylococcus aureus ATCC 25923 assessed as fractional inhibitory concentration index in presence of gentamicin by checkerboard assay; type: functional
Cell membrane [36] = assay: Induction of cell membrane disruption in Escherichia coli ATCC 25922 assessed as cell morphological damage measured after 120 mins by […] electron microscope analysis; type: subcellular

CC[C@H](C)[C@H](NC(=O)[C@@H]1CCCN1C(=O)[C@H](CC(C)C)NC(=O)[C@@H](N)Cc1ccccc1)C(=O)N[C@H](C(=O)N[C@@H](C)C(=O)N[C@@H](CCCCN)C(=O)N[C@@H](CC(C)C)C(=O)N[C@@H](CC(C)C)C(=O)N[C@@H](CO)C(=O)NCC(=O)N[C@@H](CC(C)C)C(=O)N[C@@H](CC(C)C)C(N)=O)C(C)C (H-FLPIVAKLLSGLL-NH2)
fractional inhibitory concentration index (FICI) (Staphylococcus aureus [1]): 0.75
fractional inhibitory concentration index (FICI) (Escherichia coli [2]): 0.625
fractional inhibitory concentration index (FICI) (Staphylococcus aureus [3]): 0.5625
MIC (Escherichia coli [4]): 32 µM (≈ 44.2 µg/mL)
fractional inhibitory concentration index (FICI) (Escherichia coli [5]): 1
Activity (Cell membrane [6]): 24.1%
fractional inhibitory concentration index (FICI) (Escherichia coli [7]): 1.25
Activity (Cell membrane [8]): 78.3%
fractional inhibitory concentration index (FICI) (Staphylococcus aureus [9]): 1.0625
fractional inhibitory concentration index (FICI) (Staphylococcus aureus [10]): 0.75
fractional inhibitory concentration index (FICI) (Escherichia coli [11]): 0.625
MIC (Klebsiella pneumoniae): > 128 µM
Activity (Cell membrane [12]): Active
Activity (Staphylococcus aureus [13]): Active
fractional inhibitory concentration index (FICI) (Escherichia coli [14]): 1
fractional inhibitory concentration index (FICI) (Staphylococcus aureus [15]): 1
mortality at 168 h [16]: 100%
Activity (Cell membrane [17]): Active
MIC (Bacillus subtilis): 4 µM (≈ 5.53 µg/mL)
MIC (Pseudomonas aeruginosa): 128 µM (≈ 177 µg/mL)
Activity (Cell membrane [18]): Dde
Activity (Cell membrane [19]): Active
fractional inhibitory concentration index (FICI) (Staphylococcus aureus [20]): 1
Activity [21]: Non-Toxic
fractional inhibitory concentration index (FICI) (Escherichia coli [22]): 0.75
fractional inhibitory concentration index (FICI) (Escherichia coli [23]): 1.125
Activity (Escherichia coli [24]): Tde
fractional inhibitory concentration index (FICI) (Escherichia coli [25]): 1
fractional inhibitory concentration index (FICI) (Staphylococcus aureus [26]): 0.75
Activity (Staphylococcus aureus [27]): Active
Retention_time [28]: 19.445 min
MIC (Staphylococcus aureus [29]): 4 µM (≈ 5.53 µg/mL)
fractional inhibitory concentration index (FICI) (Escherichia coli [30]): 1
Activity [31]: Non-Toxic
Activity (Cell membrane [32]): Active
fractional inhibitory concentration index (FICI) (Escherichia coli [33]): 0.625
Activity (Staphylococcus aureus [34]): Tde
fractional inhibitory concentration index (FICI) (Staphylococcus aureus [35]): 0.5625
Activity (Cell membrane [36]): Active
